# Key:
# osteoclast precursors = assay: Osteoclast tartrate-resistant acid phosphatase assay; type: cell-based; settings: Osteoclast; 7-14 days, RANKL and M-CSF
# c-FMS = assay: cFOS mRNA production in a c-FMS mouse spleen pharmacodynamic model; type: in vivo; settings: out to 8 h post 30 mg/kg single oral dose, read-out: inhibition of cFOS mRNA levels
# Method: Analysis of cFOS mRNA Production in a c-FMS Mouse Spleen Pharmacodynamic Model To examine the in vivo modulation of FMS activity by compounds of formula I, spleen samples from female DBA/1 mice were collected and analyzed for M-CSF stimulated production of cFOS mRNA. Briefly, six to seven week old female Taconic DBA/1BO J Bom Tac mice were treated with a single oral dose (by gavage) of either vehicle or compound. Plasma and spleen samples are collected from four mice at each timepoint 2, 4, 6, 8, 12, 18, and 24 hours after dosing. Fifteen minutes prior to euthanasia, all mice were injected IV with 1 μg (100 μL fixed volume) of M-CSF. M-CSF, Recombinant Mouse Macrophage Colony Stimulating Factor (36.4 kDa homodimer, ≧98% purity) was obtained from Gibco. All procedures carried out in this experiment were conducted in compliance with all the laws, regulations and guidelines of the National Institutes of Health (NIH). cFOS mRNA levels in spleen extracts were determined using a quantitative reverse transcriptase PCR kit from Life Technologies. Plasma levels of FMS inhibitors were determined by mass spectrometer analysis. The degree of FMS inhibition was correlative to the amount of decrease observed in cFOS mRNA levels in the spleen samples of treated animals compared to vehicle.
smiles,measurement,setting,value
"CN1CCN(C(=O)Nc2cc(Oc3ccc(NC(=O)NC(=O)C(C)(C)C)nc3)ccn2)CC1 [Example 45, 4-methyl-N-(4-((6-(3-pivaloylureido)pyridin-3-yl)oxy)pyridin-2-yl)piperazine-1-carboxamide]",IC50,osteoclast precursors,< 10 nM
same,inhibition in vivo at 30 mg/kg,c-FMS,≥ 50%

# — patent publication US9309224B2 (Deciphera Pharmaceuticals, LLC, priority 2013, dated 2016)
